This experiment has as its target T1, ZIKV NS3 helicase (Zika virus, UniProt Q32ZE1).
T1 sequence (Q32ZE1 1673-2115 limits assumed): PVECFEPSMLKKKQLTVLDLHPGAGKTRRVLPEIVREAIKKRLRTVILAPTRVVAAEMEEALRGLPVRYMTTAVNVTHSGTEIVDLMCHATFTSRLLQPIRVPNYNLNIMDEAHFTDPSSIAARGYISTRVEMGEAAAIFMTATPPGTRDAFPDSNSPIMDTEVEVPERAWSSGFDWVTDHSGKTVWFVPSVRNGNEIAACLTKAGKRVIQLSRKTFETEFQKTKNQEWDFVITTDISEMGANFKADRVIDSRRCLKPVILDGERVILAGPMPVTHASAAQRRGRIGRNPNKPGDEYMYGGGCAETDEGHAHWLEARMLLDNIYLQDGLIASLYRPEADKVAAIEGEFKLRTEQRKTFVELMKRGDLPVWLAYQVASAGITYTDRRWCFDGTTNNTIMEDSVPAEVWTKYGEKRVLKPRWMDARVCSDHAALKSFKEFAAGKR
The experiment is described as follows: malachite green phosphate release NTPase assay. The class given is biochemical.

The compound `COc1cc(/C=C/C(=O)CC(=O)/C=C/c2ccc(O)c(OC)c2)ccc1O` [curcumin] yielded a half-maximal inhibitory concentration (IC50) of 64.4 µM.

For orientation: IC50 means the point on the concentration scale where inhibition reaches its midpoint.

Values taken from publication doi:10.1101/2024.01.03.573903v1 (biorxiv, 2024).
